ChEMBL document CHEMBL4020758, “Anti-atherosclerotic activities of flavonoids from the flowers of Helichrysum arenarium L. MOENCH through the pathway of anti-inflammation” (Bioorg Med Chem Lett, 2017)
Calls of active or inactive are those of the source. No cut-off for these calls is given here.

Tests used:
[1] = test system: A7R5; assay: Antiproliferative activity against rat A7r5 cells at 50 uM after 24 hrs by MTT assay; format: functional, cell-based
[2] = test system: Thoracic aorta; assay: Anti-atherosclerosis activity in Sprague-Dawley rat thoracic aortic vascular ring endothelial injury model assessed as appearance of smooth vascular endothelial surface after 13 days by hematoxylin and eosin staining based assay; format: functional, tissue-based
[3] = test system: Thoracic aorta; assay: Anti-atherosclerosis activity in Sprague-Dawley rat thoracic aortic vascular ring endothelial injury model assessed as decrease in VEGF level at 50 uM by ELISA; format: functional, tissue-based
[4] = test system: Thoracic aorta; assay: Anti-atherosclerosis activity in Sprague-Dawley rat thoracic aortic vascular ring endothelial injury model assessed as decrease in JNK2 level at 50 uM by ELISA; format: functional, tissue-based
[5] = test system: A7R5; assay: Antiproliferative activity against rat A7r5 cells at 100 uM after 24 hrs by MTT assay; format: functional, cell-based
[6] = test system: RAW264.7; assay: Anti-inflammatory activity in mouse RAW264.7 cells assessed as inhibition of LPS/IFN-induced NO production at 10 to 20 uM measured 48 hrs post LPS/IFN challenge by Griess assay; format: functional, cell-based
[7] = test system: Thoracic aorta; assay: Anti-atherosclerosis activity in Sprague-Dawley rat thoracic aortic vascular ring endothelial injury model assessed as reduction in vascular endothelial proliferation after 13 days by hematoxylin and eosin staining based assay; format: functional, tissue-based
[8] = test system: Thoracic aorta; assay: Anti-atherosclerosis activity in Sprague-Dawley rat thoracic aortic vascular ring endothelial injury model assessed as decrease in CRP level at 50 uM by ELISA; format: functional, tissue-based
[9] = test system: Thoracic aorta; assay: Anti-atherosclerosis activity in Sprague-Dawley rat thoracic aortic vascular ring endothelial injury model assessed as decrease in p38 level at 25 to 50 uM by ELISA; format: functional, tissue-based
[10] = test system: A7R5; assay: Antiproliferative activity against rat A7r5 cells at 10 uM after 24 hrs by MTT assay; format: functional, cell-based
[11] = test system: Thoracic aorta; assay: Anti-atherosclerosis activity in Sprague-Dawley rat thoracic aortic vascular ring endothelial injury model assessed as decrease in VEGF level at 25 uM by ELISA; format: functional, tissue-based
[12] = test system: Thoracic aorta; assay: Anti-atherosclerosis activity in Sprague-Dawley rat thoracic aortic vascular ring endothelial injury model assessed as decrease in CRP level at 25 uM by ELISA; format: functional, tissue-based
[13] = test system: Thoracic aorta; assay: Anti-atherosclerosis activity in Sprague-Dawley rat thoracic aortic vascular ring endothelial injury model assessed as decrease in JNK2 level at 25 uM by ELISA; format: functional, tissue-based
[14] = test system: Thoracic aorta; assay: Anti-atherosclerosis activity in Sprague-Dawley rat thoracic aortic vascular ring endothelial injury model assessed as decrease in CRP level by ELISA; format: functional, tissue-based
[15] = test system: Thoracic aorta; assay: Anti-atherosclerosis activity in Sprague-Dawley rat thoracic aortic vascular ring assessed as restoration of injured vessel after 13 days by hematoxylin and eosin staining based assay; format: functional, tissue-based

SMILES	Activity [1]	Activity [2]	Activity [3]	Activity [4]	Activity [5]	inhibition [6]	Activity [7]	Activity [8]	Activity [9]	Activity [10]	Activity [11]	Activity [12]	Activity [13]	Activity [14]	Activity [15]
C[C@@H]1O[C@@H](O[C@H]2[C@H](Oc3cc(O)c4c(c3)O[C@H](c3ccc(O)cc3)CC4=O)O[C@H](CO)[C@@H](O)[C@@H]2O)[C@H](O)[C@H](O)[C@H]1O	inactive	Active	Active	Active	inactive	Active	inactive	Active	Active	inactive	–	–	–	–	–
C[C@@H]1O[C@@H](OC[C@H]2O[C@@H](Oc3cc(O)c4c(c3)O[C@H](c3ccc(O)cc3)CC4=O)[C@H](O)[C@@H](O)[C@@H]2O)[C@H](O)[C@H](O)[C@H]1O	inactive	Active	Active	–	inactive	Active	inactive	Active	Active	inactive	–	–	–	–	–
O=c1c(O)c(-c2ccc(O)cc2)oc2cc(O)cc(O)c12	Active	Active	Active	Active	inactive	Active	inactive	Active	–	inactive	Active	Active	Active	Dose-dependent effect	–
O=c1cc(-c2ccc(O)c(O)c2)oc2cc(O[C@@H]3O[C@H](CO)[C@@H](O)[C@H](O)[C@H]3O)cc(O)c12	Active	Active	Active	–	inactive	Active	inactive	Active	–	inactive	–	Active	–	–	–
O=c1cc(-c2ccc(O)c(O)c2)oc2cc(O)cc(O)c12	inactive	Active	Active	–	inactive	Active	inactive	Active	–	inactive	Active	Active	–	–	–
O=C1C[C@@H](c2ccc(O)c(O)c2)Oc2cc(O)cc(O)c21	Active	Active	Active	Active	inactive	Active	inactive	Active	Active	inactive	–	Active	–	–	–
O=c1c(O[C@@H]2O[C@H](CO)[C@@H](O)[C@H](O)[C@H]2O)c(-c2ccc(O)cc2)oc2cc(O)cc(O)c12	Active	Active	Active	Active	inactive	Active	Active	Active	–	inactive	–	Active	–	–	Active
